Measurements as given in US7803825B2, “Aminoalkylazole derivatives as histamine-3 antagonists” (Wyeth LLC, priority 2007, dated 2010).
Where a name gives a salt, the structure may show the parent alone.

target: T1, histamine-3 (H3) receptor (Homo sapiens, UniProt Q9Y5N1); assay: Methyl Histamine Binding in Human Histamine-3 Receptor Cell Line; details: membranes of stably transfected HEK293T cells, radioligand 1 nM, Ki from IC50 by Cheng-Prusoff
T1 construct: expressed in transfected cells; host or cells: HEK293T
T1 sequence (Q9Y5N1 whole entry): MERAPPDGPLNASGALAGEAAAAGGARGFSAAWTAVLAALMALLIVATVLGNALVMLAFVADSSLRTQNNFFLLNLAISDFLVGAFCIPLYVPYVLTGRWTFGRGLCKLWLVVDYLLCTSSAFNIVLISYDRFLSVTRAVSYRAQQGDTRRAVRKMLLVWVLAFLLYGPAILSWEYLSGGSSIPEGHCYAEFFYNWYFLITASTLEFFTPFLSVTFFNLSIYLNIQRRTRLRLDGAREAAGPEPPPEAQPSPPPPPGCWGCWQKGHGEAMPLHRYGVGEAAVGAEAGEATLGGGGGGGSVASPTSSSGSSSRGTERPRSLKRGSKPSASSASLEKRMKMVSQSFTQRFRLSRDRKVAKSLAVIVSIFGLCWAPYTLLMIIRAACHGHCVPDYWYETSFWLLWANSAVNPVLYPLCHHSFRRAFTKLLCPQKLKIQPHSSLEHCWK
Description: Evaluation of Methyl Histamine Binding in Human Histamine-3 Receptor Cell Line
The affinity of test compounds for the histamine-3 (H3) receptor is evaluated in the following manner. Stably transfected HEK293T cells are grown in DMEM containing 10% heat inactivated FBS and G-418 (500 ug/ml). Cells are scraped from the plate, transferred to centrifuge tubes, washed one time in PBS by centrifugation in a Sorvall RT7 Plus centrifuge (2000 rpm 10 minutes, 4° C.). The resulting pellets are stored at 80° C. until ready for use. Cells are re-suspended in buffer (50 mM Tris pH=7.5) and placed in a Dounce homogenizer, douncing ten times to homogenize cells. The homogenate is spun down by centrifugation (Sorvall RT7 Plus, 1800 rpm 10 minutes, 4° C.). The supernatant is placed in a Corex tube and spun down by centrifugation (Sorvall RC 5c Plus, 17,000 rpm 20 minutes, 4° C.). The pellet is resuspended in buffer (50 mM Tris, pH 7.5). Protein concentration (ug/ul) is determined using the Micro-BCA Protein Determination. The binding assay is set up in a 96 well microtiter plate in a total volume of 250 uL. Non-specific binding is determined in the presence of 10 uM clobenpropit. The final radioligand concentration is 1 nM. The test compound is serially diluted using the Beckman Biomek2000 to a final approximate range of 100 uM to 100 pM. Membranes are suspended in buffer, homogenized in 2 bursts of ten seconds using a Vitris mechanical homogenizer set at power setting 5. Ten μg of membranes are added to each well. Following a one hour incubation at 30° C., the reaction is terminated by the addition of ice cold buffer and rapid filtration with a Packard Filtermate Harvester through a GF/B filter pre-soaked with 1% PEI for one hour. The plate is dried for one hour at 37° C. and 60 μL Microscint Scintillant is added to each well. The CPM per well is measured on a Packard Top Count NXT. Ki values are determined in nM. The Ki is calculated from the IC50 (i.e. the concentration of competing ligand which displaces 50% of the specific binding of the radioligand). CPM values are expressed as % specific binding and plotted vs compound concentration. A curve is fitted using a four-parameter logistic fit and the IC50 value is determined. The Ki is calculated from this using the Cheng-Prusoff equation: […]=IC50/1+(L/Kd) where L=concentration of free radioligand used in the assay, and Kd is the dissociation constant of the radioligand for the receptor. L is determined for each experiment by counting an aliquot of the diluted radioligand (corresponding to that added to each well) and the Kd has previously been determined under identical conditions for this cell line/radioligand.

SMILES | Ki
c1ccc2c(c1)ncn2Cc1ccc(-c2nc(CN3CCCC3)co2)cc1 [Example 6B, 1-{4-[4-(Pyrrolidin-1-ylmethyl)-1,3-oxazol-2-yl]benzyl}-1H-benzimidazole Hydrochloride] | ≤ 10 nM
c1ccc2c(c1)ncn2Cc1ccc(-c2nc(CN3CCOCC3)co2)cc1 [Example 10, 1-{4-[4-(morpholin-4-ylmethyl)-1,3-oxazol-2-yl]benzyl}-1H-benzimidazole] | > 100 nM
CN1CCN(Cc2coc(-c3ccc(Cn4cnc5ccccc54)cc3)n2)CC1 [Example 11] | > 100 nM
CCN(CC)Cc1coc(-c2ccc(Cn3cnc4ccccc43)cc2)n1 [Example 12, N-({2-[4-(1H-benzimidazol-1-ylmethyl)phenyl]-1,3-oxazol-4-yl}methyl)-N-ethylethanamine] | ≤ 10 nM
CC1CCCN1Cc1coc(-c2ccc(Cn3cnc4ccccc43)cc2)n1 (stereo not drawn) [Example 13, 1-(4-{4-[(2-methylpyrrolidin-1-yl)methyl]-1,3-oxazol-2-yl}benzyl)-1H-benzimidazole] | ≤ 10 nM
c1ccc2c(c1)ncn2Cc1ccc(-c2nc(CN3CCCCCC3)co2)cc1 [Example 14, 1-{4-[4-(azepan-1-ylmethyl)-1,3-oxazol-2-yl]benzyl}-1H-benzimidazole] | ≤ 10 nM
CC1CCCCN1Cc1coc(-c2ccc(Cn3cnc4ccccc43)cc2)n1 (stereo not drawn) [Example 15, 1-(4-{4-[(2-methylpiperidin-1-yl)methyl]-1,3-oxazol-2-yl}benzyl)-1H-benzimidazole] | 50.1 to 100 nM
CC1CCCN(Cc2coc(-c3ccc(Cn4cnc5ccccc54)cc3)n2)C1 (stereo not drawn) [Example 16] | ≤ 10 nM
CC1CCN(Cc2coc(-c3ccc(Cn4cnc5ccccc54)cc3)n2)CC1 [Example 17] | ≤ 10 nM
F[C@@H]1CCN(Cc2coc(-c3ccc(Cn4cnc5ccccc54)cc3)n2)C1 [Example 21, 1-[4-(4-{[(3R)-3-fluoropyrrolidin-1-yl]methyl}-1,3-oxazol-2-yl)benzyl]-1H-benzimidazole] | 10.1 to 25 nM
F[C@H]1CCN(Cc2coc(-c3ccc(Cn4cnc5ccccc54)cc3)n2)C1 [Example 22, 1-[4-(4-{[(3S)-3-fluoropyrrolidin-1-yl]methyl}-1,3-oxazol-2-yl)benzyl]-1H-benzimidazole] | 10.1 to 25 nM
Cc1oc(-c2ccc(Cn3cnc4ccccc43)cc2)nc1CN1CCCC1 [Example 28, 1-{4-[5-methyl-4-(pyrrolidin-1-ylmethyl)-1,3-oxazol-2-yl]benzyl}-1H-benzimidazole] | ≤ 10 nM
c1ccc2c(c1)ncn2-c1ccc(-c2nc(CN3CCCC3)co2)cc1 [Example 36, 1-{4-[4-(pyrrolidin-1-ylmethyl)-1,3-oxazol-2-yl]phenyl}-1H-benzimidazole] | ≤ 10 nM
c1ccc2c(c1)ncn2-c1ccc(-c2nc(CN3CCCCC3)co2)cc1 [Example 37] | ≤ 10 nM
CCN(CC)Cc1coc(-c2ccc(-n3cnc4ccccc43)cc2)n1 [Example 42, N-({2-[4-(1H-benzimidazol-1-yl)phenyl]-1,3-oxazol-4-yl}methyl)-N-ethylethanamine] | 25.1 to 50 nM
CC1CCCN1Cc1coc(-c2ccc(-n3cnc4ccccc43)cc2)n1 (stereo not drawn) [Example 43, 1-(4-{4-[(2-methylpyrrolidin-1-yl)methyl]-1,3-oxazol-2-yl}phenyl)-1H-benzimidazole] | 10.1 to 25 nM
c1ccc2c(c1)ncn2-c1ccc(-c2nc(CN3CCCCCC3)co2)cc1 [Example 44, 1-{4-[4-(azepan-1-ylmethyl)-1,3-oxazol-2-yl]phenyl}-1H-benzimidazole] | 25.1 to 50 nM
CC1CCCCN1Cc1coc(-c2ccc(-n3cnc4ccccc43)cc2)n1 (stereo not drawn) [Example 45, 1-(4-{4-[(2-methylpiperidin-1-yl)methyl]-1,3-oxazol-2-yl}phenyl)-1H-benzimidazole] | ≤ 10 nM
CC1CCN(Cc2coc(-c3ccc(-n4cnc5ccccc54)cc3)n2)CC1 [Example 47, 1-(4-{4-[(4-methylpiperidin-1-yl)methyl]-1,3-oxazol-2-yl}phenyl)-1H-benzimidazole] | ≤ 10 nM
OC[C@@H]1CCCN1Cc1coc(-c2ccc(-n3cnc4ccccc43)cc2)n1 [Example 48, [(2S)-1-({2-[4-(1H-benzimidazol-1-yl)phenyl]-1,3-oxazol-4-yl}methyl)pyrrolidin-2-yl]methanol] | ≤ 10 nM
Cn1c(-c2ccc(-c3nc(CN4CCCC4)co3)cc2)nc2ccccc21 [Example 51, 1-methyl-2-{4-[4-(pyrrolidin-1-ylmethyl)-1,3-oxazol-2-yl]phenyl}-1H-benzimidazole] | ≤ 10 nM
CCN(C)Cc1coc(-c2ccc(-c3nc4ccccc4n3C)cc2)n1 [Example 53, N-methyl-N-({2-[4-(1-methyl-1H-benzimidazol-2-yl)phenyl]-1,3-oxazol-4-yl}methyl)ethanamine] | ≤ 10 nM
c1ccc2c(c1)nc(-c1ccc(-c3nc(CN4CCCC4)co3)cc1)n2CC1CCC1 [Example 58, 1-(cyclobutylmethyl)-2-{4-[4-(pyrrolidin-1-ylmethyl)-1,3-oxazol-2-yl]phenyl}-1H-benzimidazole] | 10.1 to 25 nM
C[C@H]1CCCN1Cc1coc(-c2ccc(-c3nc4ccccc4n3CC3CCC3)cc2)n1 [Example 59, 1-(cyclobutylmethyl)-2-[4-(4-{[(2S)-2-methylpyrrolidin-1-yl]methyl}-1,3-oxazol-2-yl)phenyl]-1H-benzimidazole] | ≤ 10 nM
c1ccc2c(c1)nc(-c1ccc(-c3nc(CN4CCCC4)co3)cc1)n2CCC1CCCCC1 [Example 60, 1-(2-cyclohexylethyl)-2-{4-[4-(pyrrolidin-1-ylmethyl)-1,3-oxazol-2-yl]phenyl}-1H-benzimidazole] | 50.1 to 100 nM
C[C@H]1CCCN1Cc1coc(-c2ccc(-c3nc4ccccc4n3CCC3CCCCC3)cc2)n1 [Example 61] | 25.1 to 50 nM

Second part, the compound after the results:

Ki | SMILES
≤ 10 nM | c1ccc2c(c1)ncn2Cc1ccc(-c2nc(CN3CCCCC3)co2)cc1 [Example 7, 1-{4-[4-(piperidin-1-ylmethyl)-1,3-oxazol-2-yl]benzyl}-1H-benzimidazole]
10.1 to 25 nM | CN(C)Cc1coc(-c2ccc(Cn3cnc4ccccc43)cc2)n1 [Example 8]
10.1 to 25 nM | OC[C@@H]1CCCN1Cc1coc(-c2ccc(Cn3cnc4ccccc43)cc2)n1 [Example 18, [(2S)-1-({2-[4-(1H-benzimidazol-1-ylmethyl)phenyl]-1,3-oxazol-4-yl}methyl)pyrrolidin-2-yl]methanol]
≤ 10 nM | C[C@@H]1CCCN1Cc1coc(-c2ccc(Cn3cnc4ccccc43)cc2)n1 [Example 19, 1-[4-(4-{[(2R)-2-methylpyrrolidin-1-yl]methyl}-1,3-oxazol-2-yl)benzyl]-1H-benzimidazole]
≤ 10 nM | C[C@H]1CCCN1Cc1coc(-c2ccc(Cn3cnc4ccccc43)cc2)n1 [Example 20, 1-[4-(4-{[(2S)-2-methylpyrrolidin-1-yl]methyl}-1,3-oxazol-2-yl)benzyl]-1H-benzimidazole]
25.1 to 50 nM | Brc1oc(-c2ccc(Cn3cnc4ccccc43)cc2)nc1CN1CCCC1 [Example 29, 1-{4-[5-bromo-4-(pyrrolidin-1-ylmethyl)-1,3-oxazol-2-yl]benzyl}-1H-benzimidazole]
10.1 to 25 nM | CN(C)Cc1coc(-c2ccc(-n3cnc4ccccc43)cc2)n1 [Example 38]
10.1 to 25 nM | CCN(C)Cc1coc(-c2ccc(-n3cnc4ccccc43)cc2)n1 [Example 39]
> 100 nM | c1ccc2c(c1)ncn2-c1ccc(-c2nc(CN3CCOCC3)co2)cc1 [Example 40]
> 100 nM | CN1CCN(Cc2coc(-c3ccc(-n4cnc5ccccc54)cc3)n2)CC1 [Example 41, 1-(4-{4-[(4-methylpiperazin-1-yl)methyl]-1,3-oxazol-2-yl}phenyl)-1H-benzimidazole]
≤ 10 nM | CC1CCCN(Cc2coc(-c3ccc(-n4cnc5ccccc54)cc3)n2)C1 (stereo not drawn) [Example 46, 1-(4-{4-[(3-methylpiperidin-1-yl)methyl]-1,3-oxazol-2-yl}phenyl)-1H-benzimidazole]
≤ 10 nM | Cn1c(-c2ccc(-c3nc(CN4CCCCC4)co3)cc2)nc2ccccc21 [Example 52, 1-methyl-2-{4-[4-(piperidin-1-ylmethyl)-1,3-oxazol-2-yl]phenyl}-1H-benzimidazole]
10.1 to 25 nM | CN(C)Cc1coc(-c2ccc(-c3nc4ccccc4n3C)cc2)n1 [Example 54, N,N-dimethyl-1-{2-[4-(1-methyl-1H-benzimidazol-2-yl)phenyl]-1,3-oxazol-4-yl}methanamine]
